For series [1], the system named is Digitaria ciliaris. Description: Herbicidal activity against Digitaria ciliaris assessed as killing at 2 kg/ha. It counts as functional.
The test system of series [2] is Echinochloa crus-galli. Description: Herbicidal activity against Echinochloa crus-galli (barnyard grass) assessed as killing at 2 kg/ha. It counts as functional.
The test system of series [3] is Persicaria lapathifolia. Description: Herbicidal activity against Persicaria lapathifolia assessed as killing at 2 kg/ha. It counts as functional.
The subject of series [4] is Amaranthus viridis. Description: Herbicidal activity against Amaranthus viridis assessed as killing at 2 kg/ha. It is filed as functional.
In series [5] the test system is Digitaria ciliaris. As to the kind of experiment: Herbicidal activity against Digitaria ciliaris assessed as killing at 1 kg/ha. It counts as functional.
Series [6] deals with Gossypium hirsutum. As to the kind of experiment: Toxicity in Gossypium hirsutum (cotton) assessed as killing at 2 kg/ha by crop selectivity assay. It is filed as organism-based. The note with it: in vivo.
The test system of series [7] is Amaranthus viridis. As to the kind of experiment: Herbicidal activity against Amaranthus viridis assessed as killing at 1 kg/ha. It counts as functional.
Series [8] has as its system Glycine max. As to the kind of experiment: Toxicity in Glycine max (soybean) assessed as killing at 1 kg/ha by crop selectivity assay. It is filed as organism-based. Conditions: in vivo.
For series [9], the system named is Echinochloa crus-galli. As to the kind of experiment: Herbicidal activity against Echinochloa crus-galli (barnyard grass) assessed as killing at 1 kg/ha. It is filed as functional.
In series [10] the test system is Triticum aestivum. Description: Toxicity in Triticum aestivum (wheat) plant assessed as killing at 2 kg/ha by crop selectivity assay. Conditions: in vivo. It is filed as organism-based.
Series [11] relates to Glycine max. Description: Toxicity in Glycine max (soybean) assessed as killing at 2 kg/ha by crop selectivity assay. It is filed as organism-based. The note with it: in vivo.
The test system of series [12] is Gossypium hirsutum. Description: Toxicity in Gossypium hirsutum (cotton) assessed as killing at 1 kg/ha by crop selectivity assay. It counts as organism-based. Conditions: in vivo.
The subject of series [13] is Persicaria lapathifolia. Description: Herbicidal activity against Persicaria lapathifolia assessed as killing at 1 kg/ha. It is filed as functional.
The test system of series [14] is Triticum aestivum. As to the kind of experiment: Toxicity in Triticum aestivum (wheat) plant assessed as killing at 1 kg/ha by crop selectivity assay. It is filed as organism-based. The note with it: in vivo.

The record followed here is ChEMBL document CHEMBL3045193, “Synthesis and Herbicidal Activity of 1H-2, 3-Benzoxazine Derivatives” (J Pestic Sci, 2002).

Take `Cc1cc(C2=NOCc3ccccc32)on1`: the Activity in the series on Digitaria ciliaris [1], with Echinochloa crus-galli [2], in the series on Persicaria lapathifolia [3] and with Amaranthus viridis [4] was 0% throughout.
Take `Cc1cccc(C2=NOCc3ccccc32)c1`: the Activity is on record as 60% in the series on Digitaria ciliaris [1] and 40% in the series on Echinochloa crus-galli [2].
On the same counts, the results for `Ic1cccc(C2=NOCc3ccccc32)c1` are 60% and 60%.
`COc1cccc(C2=NOCc3ccccc32)c1`: the figures for the Activity in the series with Digitaria ciliaris [1] and in the series with Echinochloa crus-galli [2] were 20% and 0%, respectively.
As to `Fc1ccc(C2=NOCc3ccccc32)cc1Cl`, the Activity was found to be 100% in the series with Digitaria ciliaris [1]; 100% in the series with Digitaria ciliaris [5]; 20% in the series with Gossypium hirsutum [6]; 80% in the series with Amaranthus viridis [7]; 100% with Echinochloa crus-galli [2]; 0% with Glycine max [8]. Also, the Activity was 100% in the series on Persicaria lapathifolia [3]; 100% in the series on Echinochloa crus-galli [9]; 20% in the series with Triticum aestivum [10]; 90% in the series with Amaranthus viridis [4]; 0% in the series on Glycine max [11]; 0% with Gossypium hirsutum [12]. The Activity in the series with Persicaria lapathifolia [13] worked out at 100%.
In the case of `Fc1ccc2c(c1)CON=C2c1ccc(F)c(Cl)c1`, the Activity is reported as 100% with Digitaria ciliaris [1] and 50% with Echinochloa crus-galli [2].
The like results for `Clc1cc(Cl)cc(C2=NOCc3ccccc32)c1` were, in that order, 0% and 0%.
With `Oc1cccc(C2=NOCc3ccccc32)c1`, the Activity in the series on Digitaria ciliaris [1] and with Echinochloa crus-galli [2] was 0% in each case.
Consider `Fc1ccc2c(c1)CON=C2c1ccc(F)c(Br)c1`, for which the Activity in the series with Digitaria ciliaris [1] stood at 100%; in the series on Echinochloa crus-galli [2], 20%.
In the case of `Fc1cc(C2=NOCc3ccccc32)ccc1Cl`, the figures for the Activity in the series with Digitaria ciliaris [1] and in the series with Echinochloa crus-galli [2] were 90% and 60%, respectively.
`Fc1ccc2c(c1)C(c1ccc(F)c(Br)c1)=NOC2`: the Activity in the series on Digitaria ciliaris [1] came to 100%; with Digitaria ciliaris [5], 100%; in the series with Gossypium hirsutum [6] it was 0%; in the series with Amaranthus viridis [7], 80%; with Echinochloa crus-galli [2], 100%; in the series on Glycine max [8], 0%. Besides, the Activity was 80% in the series with Persicaria lapathifolia [3]; 100% in the series on Echinochloa crus-galli [9]; 20% in the series on Triticum aestivum [10]; 100% with Amaranthus viridis [4]; 0% in the series with Glycine max [11]; 0% with Gossypium hirsutum [12]. The Activity in the series on Persicaria lapathifolia [13] was determined as 60%.
On to `Fc1ccc(C2=NOCc3ccccc32)cc1Br`, for which the Activity in the series with Digitaria ciliaris [1] and with Echinochloa crus-galli [2] was 100% throughout.
Consider `Clc1ccc(C2=NOCc3ccccc32)cc1Cl`, for which the Activity in the series with Digitaria ciliaris [1] is 100%; with Echinochloa crus-galli [2], 80%.
For `Clc1cccc(C2=NOCc3ccccc32)c1`, the Activity in the series with Digitaria ciliaris [1] amounted to 100%; in the series on Echinochloa crus-galli [2], 90%; with Persicaria lapathifolia [3], 60%; in the series with Amaranthus viridis [4], 60%.
Take `Clc1ccc(C2=NOCc3ccccc32)s1`: the Activity in the series with Digitaria ciliaris [1] is 40%; in the series with Echinochloa crus-galli [2], 20%; with Persicaria lapathifolia [3] it was 20%; in the series with Amaranthus viridis [4], 20%.
Regarding `Cn1ccnc1C1=NOCc2ccccc21`, the Activity in the series with Digitaria ciliaris [1], in the series on Echinochloa crus-galli [2], in the series with Persicaria lapathifolia [3] and in the series on Amaranthus viridis [4] was 0% throughout.
Consider `Fc1ccc(C2=NOCc3c(Cl)cccc32)cc1Cl`, for which the Activity in the series on Digitaria ciliaris [1] and in the series on Echinochloa crus-galli [2] was 0% throughout.
Consider `c1ccc(C2=NOCc3ccccc32)cc1`, for which the Activity is 20% in the series with Digitaria ciliaris [1] and 0% with Echinochloa crus-galli [2].
In the case of `Clc1ccccc1C1=NOCc2ccccc21`, the Activity with Digitaria ciliaris [1], with Echinochloa crus-galli [2], with Persicaria lapathifolia [3] and with Amaranthus viridis [4] was 0% each time.
On to `Cc1cc(C2=NOCc3ccccc32)no1`, for which the Activity in the series on Digitaria ciliaris [1], with Echinochloa crus-galli [2], in the series on Persicaria lapathifolia [3] and in the series with Amaranthus viridis [4] was 0% throughout.
Regarding `FC(F)(F)c1cccc(C2=NOCc3ccccc32)c1`, the Activity in the series with Digitaria ciliaris [1] is on record as 90%; in the series on Echinochloa crus-galli [2], 70%.
`Fc1ccc(C2=NOCc3ccccc32)cc1F`: the Activity in the series with Digitaria ciliaris [1] and in the series with Echinochloa crus-galli [2] was 80% in each case.
As for `Fc1ccc(C2=NOCc3c(F)cccc32)cc1Cl`, the Activity was determined as 100% in the series on Digitaria ciliaris [1] and 60% with Echinochloa crus-galli [2].
As for `Fc1ccc(C2=NOCc3ccccc32)cc1C(F)(F)F`, the Activity worked out at 100% with Digitaria ciliaris [1] and 90% with Echinochloa crus-galli [2].
Take `Fc1cccc(C2=NOCc3ccccc32)c1`: the Activity came to 60% in the series on Digitaria ciliaris [1] and 20% with Echinochloa crus-galli [2].
`Clc1ccc(C2=NOCc3ccccc32)cc1`: the Activity with Digitaria ciliaris [1] amounted to 20%; in the series with Echinochloa crus-galli [2], 40%; in the series on Persicaria lapathifolia [3], 0%; in the series with Amaranthus viridis [4], 20%.
Regarding `Fc1ccc(C2=NOCc3cc(Cl)ccc32)cc1Cl`, the Activity came out at 60% with Digitaria ciliaris [1] and 0% with Echinochloa crus-galli [2].
For `CCCCCCCC(=O)Oc1c(I)cc(C#N)cc1I` [IOXYNIL OCTANOATE], the Activity in the series with Triticum aestivum [14] is 0%; with Digitaria ciliaris [1] it was 80%; in the series on Digitaria ciliaris [5], 80%; with Gossypium hirsutum [6], 0%; in the series with Amaranthus viridis [7], 100%; in the series with Echinochloa crus-galli [2], 90%. Besides, the Activity with Glycine max [8] came out at 0%; with Persicaria lapathifolia [3], 90%; in the series on Echinochloa crus-galli [9] it was 80%; in the series on Triticum aestivum [10] it was 0%; with Amaranthus viridis [4] it was 100%; in the series on Glycine max [11], 20%. In addition, the Activity is 0% in the series on Gossypium hirsutum [12] and 90% in the series on Persicaria lapathifolia [13].
As for `O=[N+]([O-])c1cccc(C2=NOCc3ccccc32)c1`, the Activity amounted to 60% in the series on Digitaria ciliaris [1] and 40% in the series with Echinochloa crus-galli [2].
For `Clc1cc(C2=NOCc3ccccc32)ccn1`, the Activity came out at 60% in the series with Digitaria ciliaris [1], 80% with Echinochloa crus-galli [2], 60% in the series with Persicaria lapathifolia [3] and 60% in the series with Amaranthus viridis [4].
In the case of `Clc1cccc(C2=NOCc3ccccc32)c1Cl`, the Activity in the series on Digitaria ciliaris [1] and with Echinochloa crus-galli [2] was 0% each time.
As to `Fc1ccc(C2=NOCc3ccc(Cl)cc32)cc1Cl`, the Activity in the series with Digitaria ciliaris [1] is recorded as 100%; with Echinochloa crus-galli [2] it was 90%.
The like results for `Clc1ccc(Cl)c(C2=NOCc3ccccc32)c1` were, in that order, 0% and 0%.
On the same counts, the results for `Fc1ccc2c(c1)C(c1ccc(F)c(Cl)c1)=NOC2` are 100% and 60%.
On to `Brc1cccc(C2=NOCc3ccccc32)c1`, for which the Activity with Digitaria ciliaris [1] is 100%; in the series on Echinochloa crus-galli [2], 80%.
On the same counts, the results for `N#Cc1cccc(C2=NOCc3ccccc32)c1` are 40% and 20%.
